Test results taken from article PMC8940841, “A metabolically stable PET tracer for imaging synaptic vesicle protein 2A: synthesis and preclinical characterization of [^18F]SDM-16” (European Journal of Nuclear Medicine and Molecular Imaging, 2021).
Read-outs that look alike come from different tables or passages of the source.

How the values were obtained:
[1] = Radiation dosimetry from whole-body PET biodistribution; type: in vivo, rhesus monkeys; conditions: for maximum permissible single-study dosage: urinary bladder wall critical organ, 21 CFR 361.1
Description: Two whole-body biodistribution studies were performed in two rhesus monkeys (9.4 kg female and 17.0 kg male) to estimate human organ radiation dosimetry. Scans were carried out on a Biograph mCT (hybrid PET/CT, Siemens Medical Systems, Knoxville, TN) scanner following i.v. injections of 187.6 MBq (5.1 mCi) and 173.9 MBq (4.7 mCi) [^18F]SDM-16, and mass doses of 0.27 µg and 0.24 µg at time of injection, respectively. Monkeys were scanned for about 4 h in a sequence of 22–24 passes from top of the head to the mid-thigh. Scans were reconstructed and visually inspected for organ activity concentrations exceeding background level. The organs included were the brain, heart, liver, gall bladder, spleen, kidneys, and urinary bladder contents. Regions of interest were delineated on these organs, and mean activity values were computed to form TACs.
Within-pass decay correction was removed to reflect the actual activity in each organ, and cumulative activity (Bq^.h/cm^3) computed by integration of the data from the scan. The tail portions beyond the end of the scan were extrapolated assuming only physical decay of the tracer. These values were multiplied by the organ volumes of a standard 55-kg adult female reference and 70-kg adult male mathematical phantom, and then normalized to injected activity to obtain organ residence times (N, h). Final values were then entered into the OLINDA software to obtain absorbed doses in all organs, which were computed with different voiding assumptions.

Description for SV2A: A total of 10 PET imaging experiments with [^18F]SDM-16 were performed in rhesus monkeys (Macaca mulatta) according to a protocol approved by the Yale University Institutional Animal Care and Use Committee (IACUC). Four monkeys were studied. […] Body temperature was maintained by a water-jacket heating pad. The animal was attached to a physiological monitor, and vital signs (heart rate, blood pressure, respirations, SPO2, EKG, ETCO2, and body temperature) were continuously monitored. A venous line was inserted in one limb for administration of radiotracer, displacement, and blocking drugs. A catheter was placed in the femoral artery in the other limb for blood sampling. Dynamic PET brain scans were performed on a Focus 220 system (Siemens Medical Solutions, Knoxville, TN, USA) with a reconstructed image resolution of approximately 1.5 mm. After a 9-min transmission scan, the radioligand was injected i.v. over 3 min. by an infusion pump. Dynamic PET scans were performed for 3 h (baseline and blocking scans) or 4 h (displacement scan).
PET images were reconstructed with built-in corrections for attenuation, normalization, scatter, randoms, and deadtime. PET brain images were registered to the animal’s MR image, which was subsequently registered to a brain atlas to define the regions of interest. Dynamic images were reconstructed using a Fourier rebinning and filtered back projection algorithm. A rhesus monkey brain atlas was used for generation of regions of interest (ROIs) and time − activity curves (TACs) for the following ROIs: amygdala, brain stem, caudate nucleus, centrum semiovale (CS), cerebellum, cingulate cortex, frontal cortex, globus pallidus, hippocampus, insula, nucleus accumbens, occipital cortex, pons, putamen, substantia nigra, temporal cortex, and thalamus.
Volume of distribution (VT, mL·cm^−3) values and the first-order kinetic rate constants of tracer (K1) were derived through 1-tissue (1T) compartment kinetic modeling with the metabolite-corrected arterial plasma input function, which was calculated as the product of the fitted total plasma curve and the parent radiotracer fraction curve. Nondisplaceable volume of distribution (VND) and SV2A occupancy by LEV was calculated using the Lassen plot [32]. Nondisplaceable binding potential (BPND) values were calculated from VT values using CS as reference region, or the VND derived from the blocking study, i.e., BPND = (VT, ROI − VT, CS)/ VT, CS or BPND = (VT/VND) -1.

- total ED of a single-study dosage ([1]; 185 MBq (5 mCi)): 3.9 mSv
- mean organ radiation dose estimate ([1]; Adrenals, adult female phantom): 0.0157 mGv/MBq
- mean organ radiation dose estimate ([1]; Adrenals, adult male phantom): 0.0135 mGv/MBq
- mean organ radiation dose estimate ([1]; Brain, adult female phantom): 0.1032 mGv/MBq
- mean organ radiation dose estimate ([1]; Brain, adult male phantom): 0.0732 mGv/MBq
- mean organ radiation dose estimate ([1]; Breasts, adult female phantom): 0.0087 mGv/MBq
- mean organ radiation dose estimate ([1]; Breasts, adult male phantom): 0.0073 mGv/MBq
- average residence time N ([1]; Gall Bladder, Female): 0.015 h
- average residence time N ([1]; Gall Bladder, Male): 0.021 h
- mean organ radiation dose estimate ([1]; Gallbladder Wall, adult female phantom): 0.0441 mGv/MBq
- mean organ radiation dose estimate ([1]; Gallbladder Wall, adult male phantom): 0.0484 mGv/MBq
- mean organ radiation dose estimate ([1]; Heart Wall, adult female phantom): 0.0158 mGv/MBq
- mean organ radiation dose estimate ([1]; Heart Wall, adult male phantom): 0.0137 mGv/MBq
- average residence time N ([1]; Heart, Female): 0.015 h
- average residence time N ([1]; Heart, Male): 0.017 h
- mean organ radiation dose estimate ([1]; Kidneys, adult female phantom): 0.0454 mGv/MBq
- mean organ radiation dose estimate ([1]; Kidneys, adult male phantom): 0.0478 mGv/MBq
- mean organ radiation dose estimate ([1]; LLI Wall, adult female phantom): 0.0145 mGv/MBq
- mean organ radiation dose estimate ([1]; LLI Wall, adult male phantom): 0.0114 mGv/MBq
- mean organ radiation dose estimate ([1]; Liver, adult female phantom): 0.0538 mGv/MBq
- mean organ radiation dose estimate ([1]; Liver, adult male phantom): 0.0454 mGv/MBq
- mean organ radiation dose estimate ([1]; Lungs, adult female phantom): 0.0116 mGv/MBq
- mean organ radiation dose estimate ([1]; Lungs, adult male phantom): 0.0096 mGv/MBq
- mean organ radiation dose estimate ([1]; Muscle, adult female phantom): 0.0110 mGv/MBq
- mean organ radiation dose estimate ([1]; Muscle, adult male phantom): 0.0093 mGv/MBq
- mean organ radiation dose estimate ([1]; Osteogenic Cells, adult female phantom): 0.0188 mGv/MBq
- mean organ radiation dose estimate ([1]; Osteogenic Cells, adult male phantom): 0.0147 mGv/MBq
- mean organ radiation dose estimate ([1]; Ovaries, adult female phantom): 0.0147 mGv/MBq
- mean organ radiation dose estimate ([1]; Pancreas, adult female phantom): 0.0154 mGv/MBq
- mean organ radiation dose estimate ([1]; Pancreas, adult male phantom): 0.0134 mGv/MBq
- mean organ radiation dose estimate ([1]; Red Marrow, adult female phantom): 0.0120 mGv/MBq
- mean organ radiation dose estimate ([1]; Red Marrow, adult male phantom): 0.0098 mGv/MBq
- average residence time N ([1]; Remainder, Female): 1.504 h
- average residence time N ([1]; Remainder, Male): 1.608 h
- mean organ radiation dose estimate ([1]; Skin, adult female phantom): 0.0087 mGv/MBq
- mean organ radiation dose estimate ([1]; Skin, adult male phantom): 0.0073 mGv/MBq
- mean organ radiation dose estimate ([1]; Small Intestine, adult female phantom): 0.0130 mGv/MBq
- mean organ radiation dose estimate ([1]; Small Intestine, adult male phantom): 0.0116 mGv/MBq
- mean organ radiation dose estimate ([1]; Spleen, adult female phantom): 0.0122 mGv/MBq
- mean organ radiation dose estimate ([1]; Spleen, adult male phantom): 0.0104 mGv/MBq
- mean organ radiation dose estimate ([1]; Stomach Wall, adult female phantom): 0.0125 mGv/MBq
- mean organ radiation dose estimate ([1]; Stomach Wall, adult male phantom): 0.0107 mGv/MBq
- average residence time N ([1]; Sum, Female): 2.621 h
- average residence time N ([1]; Sum, Male): 2.621 h
- mean organ radiation dose estimate ([1]; Testes, adult male phantom): 0.0090 mGv/MBq
- mean organ radiation dose estimate ([1]; Thymus, adult female phantom): 0.0107 mGv/MBq
- mean organ radiation dose estimate ([1]; Thymus, adult male phantom): 0.0089 mGv/MBq
- mean organ radiation dose estimate ([1]; Thyroid, adult female phantom): 0.0101 mGv/MBq
- mean organ radiation dose estimate ([1]; Thyroid, adult male phantom): 0.0098 mGv/MBq
- mean organ radiation dose estimate ([1]; Total Body, adult female phantom): 0.0146 mGv/MBq
- mean organ radiation dose estimate ([1]; Total Body, adult male phantom): 0.0119 mGv/MBq
- mean organ radiation dose estimate ([1]; ULI Wall, adult female phantom): 0.0141 mGv/MBq
- mean organ radiation dose estimate ([1]; ULI Wall, adult male phantom): 0.0119 mGv/MBq
- mean organ radiation dose estimate ([1]; Urinary Bladder Wall, adult female phantom): 0.1368 mGv/MBq
- mean organ radiation dose estimate ([1]; Urinary Bladder Wall, adult male phantom): 0.0762 mGv/MBq
- average residence time N ([1]; Urinary Bladder, Female): 0.193 h
- average residence time N ([1]; Urinary Bladder, Male): 0.143 h
- mean organ radiation dose estimate ([1]; Uterus, adult female phantom): 0.0180 mGv/MBq
- Effective Dose ([1]; adult female phantom): 0.0211 mGv/MBq
- Effective Dose Equivalent ([1]; adult female phantom): 0.0316 mGv/MBq
- Effective Dose ([1]; adult male phantom): 0.0156 mGv/MBq
- Effective Dose Equivalent ([1]; adult male phantom): 0.0246 mGv/MBq
- absorbed dose ([1]; brain, female): 0.1032 mGy/MBq
- average residence time N ([1]; brain, female): 0.532 h
- absorbed dose ([1]; brain, male): 0.0732 mGy/MBq
- average residence time N ([1]; brain, male): 0.430 h
- effective dose (ED) ([1]; female): 21.1 µSv/MBq
- maximum permissible single-study dosage ([1]; female): 365.6 MBq
- absorbed dose ([1]; gallbladder wall, female): 0.0441 mGy/MBq
- absorbed dose ([1]; gallbladder wall, male): 0.0484 mGy/MBq
- absorbed dose ([1]; kidneys, female): 0.0454 mGy/MBq
- average residence time N ([1]; kidneys, female): 0.057 h
- absorbed dose ([1]; kidneys, male): 0.0478 mGy/MBq
- average residence time N ([1]; kidneys, male): 0.067 h
- absorbed dose ([1]; liver, female): 0.0538 mGy/MBq
- average residence time N ([1]; liver, female): 0.305 h
- absorbed dose ([1]; liver, male): 0.0454 mGy/MBq
- average residence time N ([1]; liver, male): 0.335 h
- effective dose (ED) ([1]; male): 15.6 µSv/MBq
- maximum permissible single-study dosage ([1]; male): 656.0 MBq
- absorbed dose ([1]; urinary bladder wall, female): 0.1368 mGy/MBq
- absorbed dose ([1]; urinary bladder wall, male): 0.0762 mGy/MBq
Compound: Cc1nccn1CN1C[C@@H](c2cc(F)cc([18F])c2)CC1=O [[^18F]SDM-16, (R)-4-(3-fluoro-5-(fluoro-^18F)phenyl)-1-((2-methyl-1H-imidazol-1-yl)methyl)pyrrolidin-2-one]
- regional BPND range, CS as reference region (SV2A): 0.69-3.90
- regional BPND range, VND method (SV2A): 2.9-15.1
- BPND, VND method (SV2A; Amygdala): 2.92 ± 0.25
- BPND, VT(CS) method (SV2A; Amygdala): 0.69 ± 0.23
- BPND, VND method (SV2A; Anterior cingulate): 15.13 ± 4.21
- BPND, VT(CS) method (SV2A; Anterior cingulate): 3.90 ± 1.38
- BPND, VND method (SV2A; Brainstem): 4.93 ± 0.15
- BPND, VT(CS) method (SV2A; Brainstem): 1.14 ± 0.24
- BPND, VND method (SV2A; Caudate): 8.76 ± 0.68
- BPND, VT(CS) method (SV2A; Caudate): 2.27 ± 0.68
- BPND, VND method (SV2A; Cerebellum): 9.47 ± 0.65
- BPND, VT(CS) method (SV2A; Cerebellum): 2.28 ± 0.53
- BPND, VND method (SV2A; Cingulate cortex): 14.97 ± 0.28
- BPND, VT(CS) method (SV2A; Cingulate cortex): 3.77 ± 1.28
- BPND, VND method (SV2A; Frontal cortex): 12.72 ± 0.76
- BPND, VT(CS) method (SV2A; Frontal cortex): 3.24 ± 1.07
- BPND, VND method (SV2A; Globus pallidus): 6.60 ± 0.33
- BPND, VT(CS) method (SV2A; Globus pallidus): 1.61 ± 0.42
- BPND ratio [^18F]SDM-16/[^11C]UCB-J (SV2A; Guo plot): 1.41
- BPND ratio [^18F]SDM-16/[^18F]SynVesT-1 (SV2A; Guo plot): 0.99
- BPND, VND method (SV2A; Hippocampus): 6.55 ± 0.97
- BPND, VT(CS) method (SV2A; Hippocampus): 1.72 ± 0.44
- BPND, VND method (SV2A; Insular cortex): 13.77 ± 1.93
- BPND, VT(CS) method (SV2A; Insular cortex): 3.54 ± 1.31
- BPND, VND method (SV2A; Nucleus accumbens): 14.51 ± 0.23
- BPND, VT(CS) method (SV2A; Nucleus accumbens): 3.48 ± 1.35
- BPND, VND method (SV2A; Occipital cortex): 12.62 ± 1.09
- BPND, VT(CS) method (SV2A; Occipital cortex): 3.49 ± 0.90
- BPND, VND method (SV2A; Putamen): 11.50 ± 0.8
- BPND, VT(CS) method (SV2A; Putamen): 3.00 ± 1.00
- BPND, VND method (SV2A; Temporal cortex): 12.06 ± 0.54
- BPND, VT(CS) method (SV2A; Temporal cortex): 3.15 ± 0.52
- BPND, VND method (SV2A; Thalamus): 9.46 ± 0.19
- BPND, VT(CS) method (SV2A; Thalamus): 2.29 ± 0.72
- BPND with CS VT lower than BPND with VND (SV2A; average): 67%
